{
  "source": "BindingDB's records for doi:10.1016/s0960-894x(03)00014-3",
  "about": "(Merck Research Laboratories, 2003)",
  "data": [
    {"experiment": "Inhibition of T-cell proliferation was determined by a human T-cell assay", "units": {"IC50": "nM"}, "values": [
      {"smiles": "COc1ccccc1C(=O)NC[C@]1(c2ccccc2)CC[C@H](NC(=O)Cc2ccccc2)CC1", "note": "[2-Methoxy-N-(1-phenyl-4-phenylacetylamino-cyclohexylmethyl)-benzamide]", "IC50": 609},
      {"smiles": "COc1ccccc1C(=O)NCC1(c2ccccc2)CCC(=O)CC1", "note": "[2-Methoxy-N-(4-oxo-1-phenyl-cyclohexylmethyl)-benzamide]", "IC50": 1200},
      {"smiles": "COc1ccccc1C(=O)NC[C@]1(c2ccccc2)CC[C@H](NC(=O)CCc2ccccc2)CC1", "note": "[2-Methoxy-N-[1-phenyl-4-(3-phenyl-propionylamino)-cyclohexylmethyl]-benzamide]", "IC50": 200},
      {"smiles": "COc1ccccc1C(=O)NC[C@]1(c2ccccc2)CC[C@@H](OC(=O)NCCO)CC1", "note": "[(2-Hydroxy-ethyl)-carbamic acid 4-[(2-methoxy-benzoylamino)-methyl]-4-phenyl-cyclohexyl ester]", "IC50": 1790},
      {"smiles": "COCCNC(=O)O[C@H]1CC[C@@](CNC(=O)c2ccccc2OC)(c2ccccc2)CC1", "note": "[(2-Methoxy-ethyl)-carbamic acid 4-[(2-methoxy-benzoylamino)-methyl]-4-phenyl-cyclohexyl ester]", "IC50": 1000},
      {"smiles": "C=C(C)CNC(=O)O[C@H]1CC[C@@](CNC(=O)c2ccccc2OC)(c2ccccc2)CC1", "note": "[(2-Methyl-allyl)-carbamic acid 4-[(2-methoxy-benzoylamino)-methyl]-4-phenyl-cyclohexyl ester]", "IC50": 688},
      {"smiles": "C=CCNC(=O)O[C@H]1CC[C@@](CNC(=O)c2ccccc2OC)(c2ccccc2)CC1", "note": "[Allyl-carbamic acid 4-[(2-methoxy-benzoylamino)-methyl]-4-phenyl-cyclohexyl ester]", "IC50": 361},
      {"smiles": "C=CCNC(=O)O[C@H]1CC[C@](CNC(=O)c2ccccc2OC)(c2ccccc2)CC1", "note": "[Allyl-carbamic acid 4-[(2-methoxy-benzoylamino)-methyl]-4-phenyl-cyclohexyl ester]", "IC50": 1100},
      {"smiles": "C=CCN(C)C(=O)O[C@H]1CC[C@](CNC(=O)c2ccccc2OC)(c2ccccc2)CC1", "note": "[Allyl-methyl-carbamic acid 4-[(2-methoxy-benzoylamino)-methyl]-4-phenyl-cyclohexyl ester]", "IC50": 659},
      {"smiles": "COc1ccccc1C(=O)NC[C@]1(c2ccccc2)CC[C@H](OC(=O)NCc2ccccc2)CC1", "note": "[Benzyl-carbamic acid 4-[(2-methoxy-benzoylamino)-methyl]-4-phenyl-cyclohexyl ester]", "IC50": 915},
      {"smiles": "CCCCNC(=O)O[C@H]1CC[C@@](CNC(=O)c2ccccc2OC)(c2ccccc2)CC1", "note": "[Butyl-carbamic acid 4-[(2-methoxy-benzoylamino)-methyl]-4-phenyl-cyclohexyl ester]", "IC50": 688},
      {"smiles": "CCCCNC(=O)O[C@H]1CC[C@](CNC(=O)c2ccccc2OC)(c2ccccc2)CC1", "note": "[Butyl-carbamic acid 4-[(2-methoxy-benzoylamino)-methyl]-4-phenyl-cyclohexyl ester]", "IC50": 320},
      {"smiles": "COc1ccccc1C(=O)NC[C@]1(c2ccccc2)CC[C@H](OC(N)=O)CC1", "note": "[Carbamic acid 4-[(2-methoxy-benzoylamino)-methyl]-4-phenyl-cyclohexyl ester]", "IC50": 519},
      {"smiles": "COc1ccccc1C(=O)NC[C@]1(c2ccccc2)CC[C@@H](OC(=O)NC(C)C)CC1", "note": "[Isopropyl-carbamic acid 4-[(2-methoxy-benzoylamino)-methyl]-4-phenyl-cyclohexyl ester]", "IC50": 222},
      {"smiles": "COc1ccccc1C(=O)NC[C@]1(c2ccccc2)CC[C@H](OC(=O)NC(C)C)CC1", "note": "[Isopropyl-carbamic acid 4-[(2-methoxy-benzoylamino)-methyl]-4-phenyl-cyclohexyl ester]", "IC50": 892},
      {"smiles": "CNC(=O)O[C@H]1CC[C@@](CNC(=O)c2ccccc2OC)(c2ccccc2)CC1", "note": "[Methyl-carbamic acid 4-[(2-methoxy-benzoylamino)-methyl]-4-phenyl-cyclohexyl ester]", "IC50": 195},
      {"smiles": "CNC(=O)O[C@H]1CC[C@](CNC(=O)c2ccccc2OC)(c2ccccc2)CC1", "note": "[Methyl-carbamic acid 4-[(2-methoxy-benzoylamino)-methyl]-4-phenyl-cyclohexyl ester]", "IC50": 1260},
      {"smiles": "COc1ccccc1C(=O)NC[C@]1(c2ccccc2)CC[C@H](NC(=O)c2ccccc2)CC1", "note": "[N-(4-Benzoylamino-1-phenyl-cyclohexylmethyl)-2-methoxy-benzamide]", "IC50": 154},
      {"smiles": "C=CCNC(=O)N[C@H]1CC[C@@](CNC(=O)c2ccccc2OC)(c2ccccc2)CC1", "note": "[N-[4-(3-Allyl-ureido)-1-phenyl-cyclohexylmethyl]-2-methoxy-benzamide]", "IC50": 676},
      {"smiles": "C=CCNC(=O)N[C@H]1CC[C@](CNC(=O)c2ccccc2OC)(c2ccccc2)CC1", "note": "[N-[4-(3-Allyl-ureido)-1-phenyl-cyclohexylmethyl]-2-methoxy-benzamide]", "IC50": 430},
      {"smiles": "C/C=C/C(=O)N[C@H]1CC[C@](CNC(=O)c2ccccc2OC)(c2ccccc2)CC1", "note": "[N-[4-((E)-But-2-enoylamino)-1-phenyl-cyclohexylmethyl]-2-methoxy-benzamide]", "IC50": 399},
      {"smiles": "COc1ccccc1C(=O)NC[C@]1(c2ccccc2)CC[C@H](OC(=O)Nc2ccccc2)CC1", "note": "[Phenyl-carbamic acid 4-[(2-methoxy-benzoylamino)-methyl]-4-phenyl-cyclohexyl ester]", "IC50": 237},
      {"smiles": "CCCNC(=O)O[C@H]1CC[C@@](CNC(=O)c2ccccc2OC)(c2ccccc2)CC1", "note": "[Propyl-carbamic acid 4-[(2-methoxy-benzoylamino)-methyl]-4-phenyl-cyclohexyl ester]", "IC50": 273},
      {"smiles": "C=CCOC(=O)N[C@H]1CC[C@@](CNC(=O)c2ccccc2OC)(c2ccccc2)CC1", "note": "[{4-[(2-Methoxy-benzoylamino)-methyl]-4-phenyl-cyclohexyl}-carbamic acid allyl ester]", "IC50": 539},
      {"smiles": "C=CCOC(=O)N[C@H]1CC[C@](CNC(=O)c2ccccc2OC)(c2ccccc2)CC1", "note": "[{4-[(2-Methoxy-benzoylamino)-methyl]-4-phenyl-cyclohexyl}-carbamic acid allyl ester]", "IC50": 354},
      {"smiles": "COC(=O)N[C@H]1CC[C@@](CNC(=O)c2ccccc2OC)(c2ccccc2)CC1", "note": "[{4-[(2-Methoxy-benzoylamino)-methyl]-4-phenyl-cyclohexyl}-carbamic acid methyl ester]", "IC50": 1060},
      {"smiles": "COc1ccccc1C(=O)NC[C@]1(c2ccccc2)CC[C@@H](NC(=O)SC)CC1", "note": "[{4-[(2-Methoxy-benzoylamino)-methyl]-4-phenyl-cyclohexyl}-thiocarbamic acid methyl ester]", "IC50": 618}
    ]}
  ]
}
